Measured values: patent publication US20080214844A1, “Icaritin and desmethylicaritin as anti-cancer agents” (priority 2007, published 2008)

Assays:
estrogen receptor = conditions: mediated by the estrogen receptor; cited from earlier work
ACHN = assay: MTT cell viability assay, ACHN; format: cell-based, human; conditions: Homo sapiens, 72 h, Kidney, 3 days culture
Procedure: (§1) 26 cancer cell lines were grown in normal growth medium in the presence of different concentrations Icaritin or Desmethylicaritin. After culture for 3 days, the cell viability was then measured by an MTT assay. […] Some EC50s were lower than 10 uM for these two compounds. […] Whereas, normal human mammary gland epithelial cells (MCF10A) were not sensitive to Icaritin and Desmethylicaritin. These cells grew well when treated with these two compounds at a concentration of 50 uM.

IGROV1 = assay: MTT cell viability assay, IGROV1; format: cell-based, human; conditions: Homo sapiens, IGROV-1, 72 h, IGROV1, Ovary, 3 days culture
Procedure: as §1

786-O = assay: MTT cell viability assay, 786-O; format: cell-based, human; conditions: Homo sapiens, 786-0, 72 h, Kidney, 3 days culture
Procedure: as §1

[1] = test system: FAS protein levels in LNCaP cells; assay: Western blot analysis for FAS protein levels; format: cell-based, human
Caki-1 = assay: MTT cell viability assay, Caki-1; format: cell-based, human; conditions: Homo sapiens, 72 h, Caki-1, Kidney, 3 days culture
Procedure: as §1

A549 = assay: MTT cell viability assay, A549; format: cell-based, human; conditions: Homo sapiens, 72 h, A549, Lung, 3 days culture
Procedure: as §1

MDA-MB-435 = assay: MTT cell viability assay, MDA-MB-435; format: cell-based, human; conditions: Homo sapiens, 72 h, MDA-MB-435, Breast, 3 days culture
Procedure: as §1

[2] = test system: human micro vessel endothelial cell (HMVECs); assay: HMVEC proliferation assay; format: cell-based
Procedure: Icaritin is a potent inhibitor of angiogenesis. Inhibition of human micro vessel endothelial cell (HMVECs) proliferation by Icaritin was investigated. HMVEC proliferation in response to Icaritin was determined using a modified method from previously described procedures. Briefly, HMVECs fed 1 day before use (with a fresh media exchange to obtain optimal growth conditions) were trypsinized and resuspended at 5×10^4 cells/ml in EBM (Clonetics)+2% FBS+gentamicin. An equivalent number of cells (2.5×10^3) in 50 μl cell suspension was plated nonconfluently onto each well of a 96-well plate and allowed to adhere for 4 h at 37° C. Serial Icaritin dilutions were prepared in this media at 3× concentration, of which 50 μl was added to the 100 μl cell suspension already in the wells, resulting in 150 μl 1× dilutions. The plate was incubated for up to 72 h at 37° C. […] Absorbance was read at 490 nm on an ELISA plate reader with Microplate Manager (Bio-Rad, Richmond, Calif.). Proliferation curves for HMVECs were determined, and measurements were obtained and compared in the log proliferation phase, which was 3 days (t=72 h) for the conditions described. […]

human lung cancer = assay: Human lung cancer xenograft model; format: in vivo
Description: ICA was extensively biotransformed and converted to at least three metabolites: Icariside II (molecule weight=514), Icaritin (molecule weight=368), and Desmethylicaritin (molecule weight=354). […] Icaritin and Desmethylicaritin have huge potentials to be developed as novel and broad anti cancer drugs.
FIG. 2. Response of Human Lung tumor to treatment with Icaritin and Desmethyliciarityn.

HMVEC tube formation = HMVEC tube formation on Matrigel; format: cell-based, human; conditions: 18 hours
Procedure: Endothelial cell tube formation in Matrigel is one measure of angiogenesis in vitro. The role of Icaritin in angiogenesis was assessed by determining the inhibition of HMVEC tube formation on Matrigel matrix plated onto 96-well plates. The HMVEC tube formation assay was performed as described previously. Briefly, 96-well plates were coated with 90 μL Matrigel (10 mg/mL, Collaborative Research) and incubated at 37° C. for 30 minutes to promote gelling. HMVECs (10,000 cells/sample) were resuspended in reduced growth medium (serum concentration 1% and 5 units/mL heparin) and added to each well with the indicated reagents in a final volume of 100 μL with different concentration of Icaritin. After 18 hours, the plates were fixed with Diff-Quik and at least four randomly selected fields per experimental condition were digitally recorded under bright-field illumination using a 10× objective. The mean additive length of all of the cords present in each optical field was measured using IPLab software and compared with controls using the Student's unpaired t test.

MCF-7 = assay: MTT cell viability assay, MCF-7; format: cell-based, human; conditions: Homo sapiens, MCF7, 72 h, MCF-7, Breast, 3 days culture
Procedure: as §1

COc1ccc(-c2oc3c(CC=C(C)C)c(O)cc(O)c3c(=O)c2O)cc1 [Icaritin]
estrogenic effect (estrogen receptor): week phytoestrogens | IC50 (ACHN): 9.5 µM | IC50 (IGROV1): 10.9 µM | IC50 (786-O): 10.5 µM | FAS protein levels (Western blot) [1]: did not influence | IC50 (Caki-1): 7 µM | IC50 (A549): 10.6 µM | IC50 (MDA-MB-435): 10.2 µM | inhibition of proliferation and inducing cell apoptosis ([2]; 10 uM, HUVECs and HMVECs): significant levels of inhibition | EC50 ([2]; Homo sapiens, HMVEC, 72 h, Cell Titer 96 Aqueous assay, read-out: EC50, inhibition of HMVEC proliferation): 8.7 µM | human lung cancer cell growth in vivo (human lung cancer): strongly inhibiting | HMVEC tube formation (HMVEC tube formation; 10 uM): completely inhibited | EC50 (HMVEC tube formation; Homo sapiens, HMVEC, read-out: EC50 to inhibit HMVEC tube formation): 5.8 µM | IC50 (MCF-7): 18.2 µM
